Patent US20250026778A1 (TIUMBIO CO., LTD., priority 2021, published 2025)
Read-outs that look alike come from different tables or passages of the source.

Target: T1, his-galectin-3 (Homo sapiens, UniProt P17931)
T1 construct: purchased Abcam
Experiment: TR-FRET assay (in vitro galectin-3 binding inhibitory activity test)
Settings: compound at 20 μM, 60 nM his-galectin-3, 15 nM biotin-ASF
Summary of the method: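 Compound is premixed with his-galectin-3 (60 nM final), then biotin-ASF (15 nM), Tb anti-His antibody (2 nM) and streptavidin-d2 (20 nM) are added. After at least 3.5 hours at RT in HEPES/NaCl buffer with Tween 20 and BSA, TR-FRET is read at 615/665 nm. DMSO serves as the uninhibited control, ASF omission as background.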

[1] = Table 1, read-out: % Inhibitory activity (at 20 μM)
[2] = Table 2, read-out: % Inhibitory activity (at 20 μM)
[3] = read-out: % Inhibitory activity (at 20 μM), Table 1

T1 sequence (P17931 whole entry): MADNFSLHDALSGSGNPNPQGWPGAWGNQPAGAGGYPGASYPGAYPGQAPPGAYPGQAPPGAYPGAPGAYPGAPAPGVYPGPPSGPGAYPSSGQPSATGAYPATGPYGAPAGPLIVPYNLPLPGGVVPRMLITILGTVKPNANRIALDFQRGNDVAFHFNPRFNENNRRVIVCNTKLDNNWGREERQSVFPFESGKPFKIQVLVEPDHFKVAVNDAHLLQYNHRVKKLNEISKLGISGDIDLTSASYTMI

inhibition at 20 µM [1] [%] | inhibition at 20 µM [2] [%] | Compound | other results
25 to 50 |  | O=C(CO[C@@H]1[C@@H](n2cc(-c3cc(F)c(F)c(F)c3)nn2)[C@@H](O)[C@@H](CO)O[C@@]12CCCO2)N1CC(O)C1 [Compound A34, 2-(((5S,7R,8R,9S,10R)-8-hydroxy-7-(hydroxymethyl)-9-(4-(3,4,5-trifluorophenyl)-1H-1,2,3-triazol-1-yl)-1,6-dioxaspiro[4.5]decan-10-yl)oxy)-1-(3-hydroxyazetidin-1-yl)ethanone] | 
 | 25 to 50 | OC[C@H]1O[C@@]2(CCCO2)[C@H](O)[C@@H](n2cc(-c3cc(F)c(F)c(F)c3)cn2)[C@H]1O [Compound A237, (5S,7R,8R,9S,10R)-7-(hydroxymethyl)-9-(4-(3,4,5-trifluorophenyl)-1H-pyrazol-1-yl)-1,6-dioxaspiro[4.5]decane-8,10-diol] | 
50 to 75 |  | OC[C@H]1O[C@]2(OCC[C@H]2NCc2cccc(Cl)c2O)[C@H](O)[C@@H](n2cc(-c3cc(F)c(F)c(F)c3)nn2)[C@H]1O [Compound A127, (4R,5S,7R,8R,9S,10R)-4-((3-chloro-2-hydroxybenzyl)amino)-7-(hydroxymethyl)-9-(4-(3,4,5-trifluorophenyl)-1H-1,2,3-triazol-1-yl)-1,6-dioxaspiro[4.5]decane-8,10-diol] | 
 | < 25 | OC[C@H]1O[C@]2(OCC[C@H]2n2ccnn2)[C@H](O)[C@@H](n2cc(-c3cc(F)c(F)c(F)c3)nn2)[C@H]1O [Compound A153, (4R,5S,7R,8R,9S,10R)-7-(hydroxymethyl)-4-(1H-1,2,3-triazol-1-yl)-9-(4-(3,4,5-trifluorophenyl)-1H-1,2,3-triazol-1-yl)-1,6-dioxaspiro[4.5]decane-8,10-diol] | 
 | 50 to 75 | O=C(N[C@@H]1CCO[C@]12O[C@H](CO)[C@H](O)[C@H](n1cc(-c3cc(F)c(F)c(F)c3)nn1)[C@H]2O)c1cnc2sccn12 [Compound A200, N-((4R,5S,7R,8R,9S,10R)-8,10-dihydroxy-7-(hydroxymethyl)-9-(4-(3,4,5-trifluorophenyl)-1H-1,2,3-triazol-1-yl)-1,6-dioxaspiro[4.5]decan-4-yl)imidazo[2,1-b]thiazole-5-carboxamide] | inhibition at 20 µM (Table 3, found values, read-out: % Inhibitory activity (at 20 μM)): 63.3%
25 to 50 |  | O=C(O[C@@H]1[C@@H](n2cc(-c3cc(F)c(F)c(F)c3)nn2)[C@@H](O)[C@@H](CO)O[C@@]12CCCCO2)c1cccc(F)c1 [Compound A51, (2R,3R,4S,5R,6S)-3-hydroxy-2-(hydroxymethyl)-4-(4-(3,4,5-trifluorophenyl)-1H-1,2,3-triazol-1-yl)-1,7-dioxaspiro[5.5]undecan-5-yl 3-fluorobenzoate] | 

More lines, now with the values behind:

Compound | inhibition at 20 µM [1] [%] | inhibition at 20 µM [2] [%] | other results
O=C(Cc1cccc(C(F)(F)F)c1)N[C@@H]1CCO[C@]12O[C@H](CO)[C@H](O)[C@H](n1cc(-c3cc(F)c(F)c(F)c3)nn1)[C@H]2O [Compound A136, N-((4R,5S,7R,8R,9S,10R)-8,10-dihydroxy-7-(hydroxymethyl)-9-(4-(3,4,5-trifluorophenyl)-1H-1,2,3-triazol-1-yl)-1,6-dioxaspiro[4.5]decan-4-yl)-2-(3-(trifluoromethyl)phenyl)acetamide] | > 75 |  | 
O=C(N[C@@H]1CCO[C@]12O[C@H](CO)[C@H](O)[C@H](n1cc(-c3cc(F)c(F)c(F)c3)cn1)[C@H]2O)c1cccc2ccc(Cl)cc12 [Compound A238, 7-chloro-N-((4R,5S,7R,8R,9S,10R)-8,10-dihydroxy-7-(hydroxymethyl)-9-(4-(3,4,5-trifluorophenyl)-1H-pyrazol-1-yl)-1,6-dioxaspiro[4.5]decan-4-yl)-1-naphthamide] |  | > 75 | 
O=C(N[C@@H]1CCO[C@]12O[C@H](CO)[C@H](O)[C@H](n1cc(-c3cc(F)c(F)c(F)c3)nn1)[C@H]2O)c1coc2ccc(Br)cc12 [Compound A180, 5-bromo-N-((4R,5S,7R,8R,9S,10R)-8,10-dihydroxy-7-(hydroxymethyl)-9-(4-(3,4,5-trifluorophenyl)-1H-1,2,3-triazol-1-yl)-1,6-dioxaspiro[4.5]decan-4-yl)benzofuran-3-carboxamide] |  | > 75 | 
OC[C@H]1O[C@@]2(CCCO2)C(O)[C@@H](n2cc(-c3cc(F)c(F)c(F)c3)nn2)[C@H]1O (stereo in doubt) [Compound A41, (5S,7R,8R,9S,10R)-7-(hydroxymethyl)-9-(4-(3,4,5-trifluorophenyl)-1H-1,2,3-triazol-1-yl)-1,6-dioxaspiro[4.5]decane-8,10-diol] |  |  | inhibition at 20 µM [3]: < 25%
OC[C@H]1O[C@]2(OCC[C@H]2NCc2cccc(C(F)(F)F)c2)[C@H](O)[C@@H](n2cc(-c3cc(F)c(F)c(F)c3)nn2)[C@H]1O [Compound A96, (4R,5S,7R,8R,9S,10R)-7-(hydroxymethyl)-4-((3-(trifluoromethyl)benzyl)amino)-9-(4-(3,4,5-trifluorophenyl)-1H-1,2,3-triazol-1-yl)-1,6-dioxaspiro[4.5]decane-8,10-diol] | < 25 |  | 
O=C(N[C@@H]1CCO[C@]12O[C@H](CO)[C@H](O)[C@H](n1cc(-c3cc(F)c(F)c(F)c3)nn1)[C@H]2O)c1cccc(OC(F)(F)F)c1 [Compound A122, N-((4R,5S,7R,8R,9S,10R)-8,10-dihydroxy-7-(hydroxymethyl)-9-(4-(3,4,5-trifluorophenyl)-1H-1,2,3-triazol-1-yl)-1,6-dioxaspiro[4.5]decan-4-yl)-3-(trifluoromethoxy)benzamide] | 50 to 75 |  | 
Cc1sc2ccccc2c1C(=O)N[C@@H]1CCO[C@]12O[C@H](CO)[C@H](O)[C@H](n1cc(-c3cc(F)c(F)c(F)c3)nn1)[C@H]2O [Compound A234, N-((4R,5S,7R,8R,9S,10R)-8,10-dihydroxy-7-(hydroxymethyl)-9-(4-(3,4,5-trifluorophenyl)-1H-1,2,3-triazol-1-yl)-1,6-dioxaspiro[4.5]decan-4-yl)-2-methylbenzo[b]thiophene-3-carboxamide] |  | > 75 | 
Cc1cc(C(=O)N[C@@H]2CCO[C@]23O[C@H](CO)[C@H](O)[C@H](n2cc(-c4cc(F)c(F)c(F)c4)nn2)[C@H]3O)c2cccnc2c1 [Compound A245, N-((4R,5S,7R,8R,9S,10R)-8,10-dihydroxy-7-(hydroxymethyl)-9-(4-(3,4,5-trifluorophenyl)-1H-1,2,3-triazol-1-yl)-1,6-dioxaspiro[4.5]decan-4-yl)-7-methylquinoline-5-carboxamide] |  | > 75 | 
O=C(OC1[C@@H](n2cc(-c3cc(F)c(F)c(F)c3)nn2)[C@@H](O)[C@@H](CO)O[C@@]12CCCO2)c1cccnc1 (stereo in doubt) [Compound A75, (5S,7R,8R,9S,10S)-8-hydroxy-7-(hydroxymethyl)-9-(4-(3,4,5-trifluorophenyl)-1H-1,2,3-triazol-1-yl)-1,6-dioxaspiro[4.5]decan-10-yl nicotinate] |  |  | inhibition at 20 µM [3]: 25 to 50%; inhibition at 20 µM (read-out: % Inhibitory activity (at 20 μM), Table 3, found values): 32%
O=C(Cc1ccc2ccccc2c1)N[C@@H]1CCO[C@]12O[C@H](CO)[C@H](O)[C@H](n1cc(-c3cc(F)c(F)c(F)c3)nn1)[C@H]2O [Compound A115, N-((4R,5S,7R,8R,9S,10R)-8,10-dihydroxy-7-(hydroxymethyl)-9-(4-(3,4,5-trifluorophenyl)-1H-1,2,3-triazol-1-yl)-1,6-dioxaspiro[4.5]decan-4-yl)-2-(naphthalen-2-yl)acetamide] | 50 to 75 |  | 
